Read-outs that look alike come from different tables or passages of the source.
Tests used:
human 5-HT2C receptor = target: T1, human 5-HT2C receptor (Homo sapiens, UniProt P28335); experiment: Binding selectivity for 5-HT6 relative to the human 5-HT2C receptor; details: 5-HT6 vs human 5-HT2C receptor
T1 sequence (P28335 33-458): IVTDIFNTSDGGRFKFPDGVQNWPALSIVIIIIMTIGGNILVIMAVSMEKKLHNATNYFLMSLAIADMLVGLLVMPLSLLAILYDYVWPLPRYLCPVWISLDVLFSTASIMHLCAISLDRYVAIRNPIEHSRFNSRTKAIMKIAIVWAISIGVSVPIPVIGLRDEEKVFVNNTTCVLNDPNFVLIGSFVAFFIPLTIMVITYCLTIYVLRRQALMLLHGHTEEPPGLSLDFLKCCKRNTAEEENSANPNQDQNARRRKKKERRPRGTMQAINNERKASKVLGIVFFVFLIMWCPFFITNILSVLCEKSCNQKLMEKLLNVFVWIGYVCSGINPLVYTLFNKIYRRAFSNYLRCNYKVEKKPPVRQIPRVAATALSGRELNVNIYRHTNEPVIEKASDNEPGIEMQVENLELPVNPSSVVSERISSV

human 5-HT7 receptor = human 5-HT7 receptor (Homo sapiens, UniProt P34969); experiment: Binding selectivity for 5-HT6 relative to the human 5-HT7 receptor; details: 5-HT6 vs human 5-HT7 receptor
Sequence of human 5-HT7 receptor (P34969 whole entry): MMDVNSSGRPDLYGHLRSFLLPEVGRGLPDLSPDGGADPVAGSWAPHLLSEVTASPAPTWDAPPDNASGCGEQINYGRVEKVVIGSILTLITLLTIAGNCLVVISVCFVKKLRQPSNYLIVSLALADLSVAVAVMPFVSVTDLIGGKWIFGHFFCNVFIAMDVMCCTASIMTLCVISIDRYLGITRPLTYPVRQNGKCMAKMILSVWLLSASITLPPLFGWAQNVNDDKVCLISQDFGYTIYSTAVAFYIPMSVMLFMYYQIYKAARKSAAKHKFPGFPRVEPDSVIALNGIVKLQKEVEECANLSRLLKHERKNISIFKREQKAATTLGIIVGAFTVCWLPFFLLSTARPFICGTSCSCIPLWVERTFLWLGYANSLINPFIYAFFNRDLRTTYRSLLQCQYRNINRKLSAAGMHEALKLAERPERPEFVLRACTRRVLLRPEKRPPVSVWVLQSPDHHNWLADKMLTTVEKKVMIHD

human 5-HT6 receptor [1] = target: T2, human 5-HT6 receptor (Homo sapiens, UniProt P50406); experiment: Effect on the cAMP response of human 5-HT6 receptors in stably transfected HEK293 cells (EIA); assay type: cell-based
T2 construct: expressed in transfected cells
T2 sequence (P50406 whole entry): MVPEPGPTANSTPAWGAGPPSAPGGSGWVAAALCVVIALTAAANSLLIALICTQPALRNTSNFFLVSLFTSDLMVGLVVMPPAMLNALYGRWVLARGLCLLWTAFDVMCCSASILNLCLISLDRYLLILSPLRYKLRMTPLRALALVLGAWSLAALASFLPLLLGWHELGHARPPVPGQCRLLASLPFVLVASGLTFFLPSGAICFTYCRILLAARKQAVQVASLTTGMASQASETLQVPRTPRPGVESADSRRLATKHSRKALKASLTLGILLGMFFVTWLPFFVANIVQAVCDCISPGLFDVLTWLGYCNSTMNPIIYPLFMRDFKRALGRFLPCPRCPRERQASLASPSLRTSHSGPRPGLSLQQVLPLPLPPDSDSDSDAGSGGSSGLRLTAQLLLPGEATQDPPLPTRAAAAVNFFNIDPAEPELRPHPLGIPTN
Protocol: The antagonist (or agonist) property of compounds for human 5-HT6 receptors was determined by testing their effect on cAMP accumulation in stably transfected HEK293 cells.
Binding of an agonist to the human 5-HT6 receptor will lead to a increase in adenyl cyclase activity. A compound which is an agonist will show an increase in cAMP production and a compound which is an antagonist will block the agonist effect.
Cell Assay: Human 5-HT6 receptors were cloned and stably expressed in HEK293 cells. These cells were plated in 6 well plates in DMEM/F12 media with 10% fetal calf serum (FCS) and 500 μg/mL G418 and incubated at 37° C. in a CO2 incubator. The cells were allowed to grow to about 70% confluence before initiation of the experiment.
On the day of the experiment, the culture media was removed, and the cells were washed once with serum free medium (SFM). Two mL of SFM+IBMX media was added and incubated at 37° C. for 10 min. The media were removed and fresh SFM+IBMX media containing various compounds, and 1 μM serotonin (as antagonist) were added to the appropriate wells and incubated for 30 min. Following incubation, the media were removed and the cells were washed once with 1 mL of PBS (phosphate buffered saline). Each well was treated with 1 mL cold 95% ethanol and 5 mM EDTA (2:1) at 4° C. for 1 hour. The cells were then scraped and transferred into Eppendorf tubes. The tubes were centrifuged for 5 min at 4° C., and the supernatants were stored at 4° C. until assayed.
cAMP Measurement: cAMP content was determined by EIA (enzyme-immunoassay) using the Amersham Biotrak cAMP EIA kit (Amersham RPN 225). The procedure used is as described for the kit. Briefly, cAMP is determined by the competition between unlabeled cAMP and a fixed quantity of peroxidase-labelled cAMP for the binding sites on anti-cAMP antibody. The antibody is immobilized onto polystyrene microtitre wells precoated with a second antibody. […] The reaction is stopped by the addition of 100 μL 1.0 M sulphuric acid and the resultant color read by a microtitre plate spectrophotometer at 450 nM within 30 minutes. […]

human 5-HT6 receptor [2] = target: T2, human 5-HT6 receptor; experiment: Binding affinity for the 5-HT6 receptor (3H-LSD radioligand binding, membranes of cells expressing the 5-HT6 receptor); details: 60 minute incubation at 37° C.
Protocol: All of the compounds of the invention were evaluated using cell types receptive specifically to the 5-HT6 receptor (for cloning and characterization of the human 5-HT6 receptor see Kohen, et al. J. Neurochemistry, 66, 1996: 47-56). […] After a 60 minute incubation at 37° C., the incubation was terminated by vacuum filtration. The filters were washed with buffer and the filters were counted for radioactivity using liquid scintillation spectrometry. The affinity of the test compound for the 5-HT6 receptor was determined by computer-assisted analysis of the data and determining the amount of the compound necessary to inhibit 50% of the binding of the radioligand to the receptor. Concentrations ranging from 10^-11 M to 10^-5 M of the test compound were evaluated.

Row | Structure (SMILES) | Ki (human 5-HT6 receptor [2]; Ki) [nM] | further results
1 | CN1CCC[C@@H]1Cc1cn(C(=O)c2c(Cl)cccc2Cl)c2ccc(OC3CCCCC3)cc12 [Example 5n, (R)-5-Cyclohexyloxy-1-(2,6-dichlorobenzoyl)-3-(1-methyl-2-pyrrolidinylmethyl)indole] |  | greater affinity for human 5-HT6 receptor relative to human 5-HT2C (human 5-HT2C receptor): ≥ 36 fold; greater affinity for human 5-HT6 receptor relative to human 5-HT7 (human 5-HT7 receptor): ≥ 36 fold
2 | CN1CCC[C@@H]1Cc1cn(C(=O)c2ccccc2Cl)c2ccc(OC3CCCCC3)cc12 [Example 5j, (R)-1-(2-Chlorobenzoyl)-5-cyclohexyloxy-3-(1-methyl-2-pyrrolidinylmethyl)indole] |  | EC50 (human 5-HT6 receptor [1]): 64 nM
3 | CN1CCC[C@@H]1Cc1cn(C(=O)c2ccccc2)c2ccc(OC3CCCCC3)cc12 [Example 7a, (R)-5-Cyclohexyloxy-3-(1-methyl-2-pyrrolidinylmethyl)-1-benzoylindole] | ≤ 10 | 
4 | CN1CCC[C@@H]1Cc1cn(S(=O)(=O)c2ccccc2)c2ccc(Cl)cc12 [Example 5d, (R)-5-Chloro-3-(1-methyl-2-pyrrolidinylmethyl)-1-phenylsulfonylindole] | ≤ 1 | EC50 (human 5-HT6 receptor [1]): 8.4 nM
5 | CN1CCC[C@@H]1Cc1cn(S(=O)(=O)c2ccccc2)c2ccc(O)cc12 [Example 10, (R)-1-Phenylsulfonyl-5-hydroxy-3-(1-methyl-2-pyrrolidinylmethyl)indole] | ≤ 10 | 
6 | CN1CCC[C@@H]1Cc1cn(C(=O)c2ccccc2)c2ccccc12 [Example 5g, (R)-1-Benzoyl-3-(1-methyl-2-pyrrolidinylmethyl)indole] | ≤ 10 | 
7 | CN1CCC[C@@H]1Cc1cn(C(=O)c2ccc(F)cc2)c2ccc(Cl)cc12 [Example 5r, (R)-5-Chloro-1-(4-fluorobenzoyl)-3-(1-methyl-2-pyrrolidinylmethyl)indole] |  | EC50 (human 5-HT6 receptor [1]): 6 nM; greater affinity for human 5-HT6 receptor relative to human 5-HT2C (human 5-HT2C receptor): ≥ 36 fold; greater affinity for human 5-HT6 receptor relative to human 5-HT7 (human 5-HT7 receptor): ≥ 36 fold
8 | Cc1ccc(S(=O)(=O)n2cc(C[C@H]3CCCN3C)c3cc(F)ccc32)cc1 [Example 7c, (R)-5-Fluoro-1-(4-methylphenylsulphonyl)-3-(1-methyl-2-pyrrolidinylmethyl)-indole] | ≤ 1 | 
9 | CN1CCC[C@@H]1Cc1cn(S(=O)(=O)c2ccccc2)c2ccc(OC3CCCCC3)cc12 [Example 4, (R)-5-Cyclohexyloxy-3-(1-methyl-2-pyrrolidinylmethyl)-1-phenylsulfonylindole] | ≤ 1 | 
10 | CN1CCC[C@@H]1Cc1cn(C(=O)c2ccccc2)c2ccc(Cl)cc12 [Example 5p, (R)-1-Benzoyl-5-chloro-3-(1-methyl-2-pyrrolidinylmethyl)indole] | ≤ 1 | 
11 | CN1CCC[C@@H]1Cc1cn(S(=O)(=O)c2ccccc2)c2ccc(OCc3ccccc3)cc12 [Example 7e, (R)-5-Benzyloxyindole-3-(1-methyl-2-pyrrolidinylmethyl)-1-phenylsulfonylindole] |  | Ki (human 5-HT6 receptor [2]; read-out: Ki): ≤ 1 nM
12 | CN1CCC[C@@H]1Cc1cn(C(=O)c2ccccc2)c2ccc(Br)cc12 [Example 7d, (R)-1-Benzoyl-5-bromo-3-(1-methyl-2-pyrrolidinylmethyl) indole] | ≤ 1 | 
